In US10526292B2 (Parion Sciences, Inc., priority 2012, dated 2020):

Legend:
[1] = system: ExLac rats; experiment: Tear volume in rat model of dry eye disease (lacrimal gland excision, ExLac Model); assay type: in vivo, Sprague Dawley rats; conditions: 5 μl test article solution per eye, tear volume by ZoneQuick thread over 6 h
Experimental: The effects of compounds on tear volume was assessed in a rat model of dry eye disease in which Sprague Dawley rats undergo surgical lacrimal gland excision (ExLac Model) to reduce normal tear volume. The lacrimal excision reduces normal tear volume by ˜50% (Table 2).
Both the ipsilateral and contralateral eyes were dosed with 5 μl of test article solution. Tear production was measured using the ZoneQuick cotton thread with impregnated phenol red dye. The folded end of the thread was held in the lateral-ventral conjunctival cul-de-sac for 10 seconds. The length of tear wicking onto the thread was determined by measuring the length of the thread that changes color from yellow to red. Use of a stereomicroscope was assist in the accurate measurement (recorded in millimeters) of the wicking/color change. Tear volume was assessed pre-dose, and 15, 30, 60, 120, and 360 minute post-dose. For reference, the effect of a saline vehicle is shown for ExLac rats and normal (no lacrimal excision surgery) rats.

[2] = In vitro drug metabolism: plasma stability, rat; assay type: in vitro ADME; conditions: 2.5 μM, 37° C., up to six hours
Experimental: (§1) The metabolic stability of 9 and 15 was assessed in plasma (rat, rabbit, dog and human) and hepatocytes (rat and dog). Compounds were added either directly to plasma or to hepatocyte suspensions at a final concentration of 2.5 or 10 μM, respectively, and incubated at 37° C. for up to six hours. Aliquots were removed at various time points and quenched. The amount of parent compound was quantified via UPLC-fluorescence analysis. The amount of parent compound remaining was calculated based on the total peak area at the time of sampling divided by the total peak area at initiation.

[3] = In vitro drug metabolism: plasma stability, rabbit; assay type: in vitro ADME; conditions: 2.5 μM, 37° C., up to six hours
Experimental: as §1

[4] = In vitro drug metabolism: plasma stability, dog; assay type: in vitro ADME; conditions: 2.5 μM, 37° C., up to six hours
Experimental: as §1

[5] = In vitro drug metabolism: plasma stability, human; assay type: in vitro ADME; conditions: 2.5 μM, 37° C., up to six hours
Experimental: as §1

[6] = In vitro drug metabolism: hepatocyte stability, rat; assay type: in vitro ADME; conditions: rat hepatocyte suspension, 10 μM, 37° C., up to six hours
Experimental: as §1

[7] = In vitro drug metabolism: hepatocyte stability, dog; assay type: in vitro ADME; conditions: dog hepatocyte suspension, 10 μM, 37° C., up to six hours
Experimental: as §1

[8] = In vitro drug metabolism: summary in words for plasma and hepatocytes among the species evaluated; assay type: in vitro ADME; conditions: plasma (rat, rabbit, dog, human) and hepatocytes (rat, dog)
Experimental: as §1

[9] = Confocal microscopy assay of amiloride congener transport; assay type: in vitro ADME; conditions: applied to apical (epithelial) surface of mouse corneas, one hour at 37 C
Text: Serial x-y images were obtained one hour post-drug addition by confocal microsopy.

[10] = system: rats; conditions: topical addition; cited from earlier work
[11] = system: rabbits; conditions: topical addition; cited from earlier work

SMILES | 6 h Ocular Hydration (AUC0-6) [1] | further results
N=C(NCCCCc1ccc(OCCN(CCCNC(=O)[C@@H](N)CCCCNC(=O)[C@@H](N)CCCCN)CCCNC(=O)[C@@H](N)CCCCNC(=O)[C@@H](N)CCCCN)cc1)NC(=O)c1nc(Cl)c(N)nc1N [Compound 59, (S,2S,2′S)—N,N′-(3,3′-(2-(4-(4-(3-(3,5-diamino-6-chloropyrazine-2-carbonyl)guanidino)butyl)phenoxy)ethylazanediyl)bis(propane-3,1-diyl))bis(2-amino-6-((S)-2,6-diaminohexanamido)hexanamide)] | 39.7 | –
N=C(N)NCCCC[C@H](NC[C@H](O)[C@@H](O)[C@H](O)[C@H](O)CO)C(=O)NCCCN(CCCNC(=O)[C@H](CCCCNC(=N)N)NC[C@H](O)[C@@H](O)[C@H](O)[C@H](O)CO)CCOc1ccc(CCCCNC(=N)NC(=O)c2nc(Cl)c(N)nc2N)cc1 [Compound 42, (S,R,R,R,2S,2′S)—N,N′-(3,3′-(2-(4-(4-(3-(3,5-diamino-6-chloropyrazine-2-carbonyl)guanidino)butyl)phenoxy)ethylazanediyl)bis(propane-3,1-diyl))bis(6-guanidino-2-((2S,3R,4R,5R)-2,3,4,5,6-pentahydroxyhexylamino)hexanamide)] | 52.3 | –
N=C(N)NCCCC[C@H](N)C(=O)NCCCN(CCCNC(=O)[C@@H](N)CCCCNC(=N)N)CCCc1ccc(NC(=O)[C@@H](N)Cc2ccc(CCCCNC(=N)NC(=O)c3nc(Cl)c(N)nc3N)cc2)cc1 [Compound 145, (2S,2′S)—N,N′-(3,3′-(3-(4-((S)-2-amino-3-(4-(4-(3-(3,5-diamino-6-chloropyrazine-2-carbonyl)guanidino)butyl)phenyl)propanamido)phenyl)propylazanediyl)bis(propane-3,1-diyl))bis(2-amino-6-guanidinohexanamide)] | 44.7 | –
N=C(N)NCCCC[C@H](N)C(=O)NCCCN(CCCNC(=O)[C@@H](N)CCCCNC(=N)N)CCOc1ccc(CCCCNC(=N)NC(=O)c2nc(Cl)c(N)nc2N)cc1 [Compound 15, (2S,2′S)—N,N′-(3,3′-(2-(4-(4-(3-(3,5-diamino-6-chloropyrazine-2-carbonyl)guanidino)butyl)phenoxy)ethylazanediyl)bis(propane-3,1-diyl))bis(2-amino-6-guanidinohexanamide)] | 50.2 | Plasma Stability (amount of parent compound remaining) [2]: 10%; Plasma Stability (amount of parent compound remaining) [3]: 8.7%; Plasma Stability (amount of parent compound remaining) [4]: 18%; Plasma Stability (amount of parent compound remaining) [5]: 7.6%; Hepatocyte Stability (amount of parent compound remaining) [6]: 14%; Hepatocyte Stability (amount of parent compound remaining) [7]: 19%; Stability towards metabolic hydrolysis in plasma and hepatocytes [8]: rapidly metabolized
N=C(N)NCCCC[C@H](N)C(=O)NCCCC[C@H](N)C(=O)NCCCC[C@H](N)C(=O)NCCCN(CCCNC(=O)[C@@H](N)CCCCNC(=O)[C@@H](N)CCCCNC(=O)[C@@H](N)CCCCNC(=N)N)CCOc1ccc(CCCCNC(=N)NC(=O)c2nc(Cl)c(N)nc2N)cc1 [Compound 102, (S,S,2S,2′S)—N,N′-(3,3′-(2-(4-(4-(3-(3,5-diamino-6-chloropyrazine-2-carbonyl)guanidino)butyl)phenoxy)ethylazanediyl)bis(propane-3,1-diyl))bis(2-amino-6-((S)-2-amino-6-((S)-2-amino-6-guanidinohexanamido)hexanamido)hexanamide)] | 43.2 | –
N=C(N)NCCCC[C@H](N)C(=O)NCCCN(CCCNC(=O)[C@@H](N)CCCCNC(=N)N)CCCN(CCCN(CCCNC(=O)[C@@H](N)CCCCNC(=N)N)CCCNC(=O)[C@@H](N)CCCCNC(=N)N)CCOc1ccc(CCCCNC(=N)NC(=O)c2nc(Cl)c(N)nc2N)cc1 [Compound 82, (2S,2′S,2″S,2′″S)—N,N′,N″,N′″-(3,3′,3″,3′″-(3,3′-(2-(4-(4-(3-(3,5-diamino-6-chloropyrazine-2-carbonyl)guanidino)butyl)phenoxy)ethylazanediyl)bis(propane-3,1-diyl))bis(azanetriyl)tetrakis(propane-3,1-diyl))tetrakis(2-amino-6-guanidinohexanamide)] | 49.8 | –
N=C(NCCCC[C@H](N)C(=O)NCCCN(CCCNC(=O)[C@@H](N)CCCCNC(=N)NC(=O)c1ccccc1)CCOc1ccc(CCCCNC(=N)NC(=O)c2nc(Cl)c(N)nc2N)cc1)NC(=O)c1ccccc1 [Compound 75, N,N′-((7S,19S)-7,19-diamino-13-(2-(4-(4-(3-(3,5-diamino-6-chloropyrazine-2-carbonyl)guanidino)butyl)phenoxy)ethyl)-1,25-diimino-8,18-dioxo-2,9,13,17,24-pentaazapentacosane-1,25-diyl)dibenzamide] | 38.2 | –
N=C(N)NCCCC[C@@H](N)C(=O)NCCCN(CCCNC(=O)[C@@H](N)CCCCNC(=N)N)CCOc1ccc(CCCCNC(=N)NC(=O)c2nc(Cl)c(N)nc2N)cc1 [Compound 90, 3,5-diamino-N—(N-(4-(4-(2-((3-((R)-2-amino-6-guanidinohexanamido)propyl)(3-((S)-2-amino-6-guanidinohexanamido)propyl)amino)ethoxy)phenyl)butyl)carbamimidoyl)-6-chloropyrazine-2-carboxamide] | 49.0 | –
N=C(N)NC(=O)c1nc(Cl)c(N)nc1N [Amiloride, amiloride] | 30.4 | Penetration of the cornea (confocal x-z image, FIG. 16) [9]: can fully penetrate the cornea; Change of tear volume [10]: approximate doubling of tear volume; Time tear volume remained elevated post-administration [10]: > 60 min; Change of tear volume [11]: approximate doubling of tear volume; Time tear volume remained elevated post-administration [11]: > 60 min
N=C(N)NCCCC[C@@H](N)C(=O)NCCCN(CCCNC(=O)[C@H](N)CCCCNC(=N)N)CCOc1ccc(CCCCNC(=N)NC(=O)c2nc(Cl)c(N)nc2N)c2c1CCCC2 [Compound 133, (2R,2′R)—N,N′-(3,3′-(2-(4-(4-(3-(3,5-diamino-6-chloropyrazine-2-carbonyl)guanidino)butyl)-5,6,7,8-tetrahydronaphthalen-1-yloxy)ethylazanediyl)bis(propane-3,1-diyl))bis(2-amino-6-guanidinohexanamide)] | 45.7 | –
N=C(N)NCCCC[C@@H](N)C(=O)NCCCN(CCCNC(=O)[C@H](N)CCCCNC(=N)N)CCOc1ccc2cc(CCCCNC(=N)NC(=O)c3nc(Cl)c(N)nc3N)ccc2c1 [Compound 116, (2R,2′R)—N,N′-(3,3′-(2-(6-(4-(3-(3,5-diamino-6-chloropyrazine-2-carbonyl)guanidino)butyl)naphthalen-2-yloxy)ethylazanediyl)bis(propane-3,1-diyl))bis(2-amino-6-guanidinohexanamide)] | 40.9 | –
N=C(N)NCCCC[C@H](N)C(=O)NCCCN(CCCN)CCOc1ccc(CCCCNC(=N)NC(=O)c2nc(Cl)c(N)nc2N)cc1 [Compound 51, (S)-3,5-diamino-N—(N-(4-(4-(2-((3-(2-amino-6-guanidinohexanamido)propyl)(3-aminopropyl)amino)ethoxy)phenyl)butyl)carbamimidoyl)-6-chloropyrazine-2-carboxamide] | 38.0 | –
N=C(NCCCCc1ccc(OCCN(CCCN)CCCN)cc1)NC(=O)c1nc(Cl)c(N)nc1N [Compound 45, 3,5-diamino-N—(N-(4-(4-(2-(bis(3-aminopropyl)amino)ethoxy)phenyl)butyl)carbamimidoyl)-6-chloropyrazine-2-carboxamide] | 42.3 | Hepatocyte Stability (amount of parent compound remaining) [6]: 83%; Hepatocyte Stability (amount of parent compound remaining) [7]: 75%
COC(=O)NC(=N)NCCCC[C@@H](N)C(=O)NCCCN(CCCNC(=O)[C@H](N)CCCCNC(=N)N)CCOc1ccc(CCCCNC(=N)NC(=O)c2nc(Cl)c(N)nc2N)cc1 [Compound 46, 3,5-diamino-N—(N-(4-(4-((R)-11-amino-17-(3-((R)-2-amino-6-guanidinohexanamido)propyl)-5-imino-3,12-dioxo-2-oxa-4,6,13,17-tetraazanonadecan-19-yloxy)phenyl)butyl)carbamimidoyl)-6-chloropyrazine-2-carboxamide] | 39.9 | –
